From patent US20100299770A1, “TARGETED CELL DEATH” (priority 2007, published 2010)

How the values were obtained:
CNS of adult rats = assay: Animal model of CNS demyelination, virus applied to CNS of adult rats, CID intraperitoneal; type: in vivo, rat; settings: CID via intraperitoneal injection at various times after virus
Procedure: The virus described above, pΔmbpICP9/mEGFP, which contains the inducible caspase 9 sequence was applied to the CNS of adult rats to create an in vivo model of CNS demyelination. Administration of the viral vector allowed effective transfer of genetic information in a variable area of parenchyma based on the rate of administration (convective distribution) and viral titer. […] First, adult Fischer rats were anaesthetized by intraperitoneal injection o f ketamine hydrocholoride (80 mg/kg) and xylazine ([…]) and placed in a sereotactic frame. A midline scalp incision is made. Access to brain parenchyma was accomplished by plaement of a right-sided burr hole through the skull, at various predetermined coordinates depending on the desired location of the lesion. […] The volume of viral vector (e.g., lentivirus) delivered depends upon the infection efficacy as determined herein and the target area size. After injection, the needle is left in place for five minutes and then slowly withdrawn over the next four minutes. The skin was closed with sutures.
For virus administration to the spinal cord an incision was made in the thoracic spine followed by a lamenectomy to expose the spinal cord. A No. 32S-gauge needle was passed into the posterior column at predetermined coordinates.

[1] = tested on: primary oligodendrocyte cultures; assay: CID-induced cell death in iCP9 virus-transduced primary oligodendrocyte cultures; type: cell-based, rat; settings: CID 10 nM; cultures stably expressing iCP9; fluorescent microscope and Methylene Blue viability staining
Procedure: 293T cells were transfected with the pΔmbpICP9/mEGFP vector along with plasmids encoding the gag-pol and RD114 envelope protein using lipofectamine (Invitrogen, Carlsbad, Calif.). Forty-eight hours after transfection viral supernatant were harvested and either directly applied to target cells or snap frozen and stored at -80° C.
To induce timely cell death. Collected virus was used to transduce primary oligodendrocyte cultures that have been established. Cells were cultured and evaluated using fluorescent microscopy for the expression of GFP. The extent of GFP positive cells correlated with the viral infection efficacy. Cell protein isolation was conducted and protein isolates were subjected to Western blot transfer to detect stable expression of the iCP9 protein. The resultant membrane was probed with anti-caspase 9 antibody (R&D Systems Inc. #AF8301). Once the stable expression of iCP9 was confirmed at the protein level wan western mot techniques, the CID was applied to these cells in culture at a 10 nM concentration. […] Cell death was detected by viewing cultures under the fluorescent microscope and by using Methylene Blue (Sigma) viability staining of cells in culture after exposure to the CID. All experiments were run in parallel using the astrocyte-derived U87 cell line as a negative control.

With `CC[C@H](C(=O)N1CCCC[C@H]1C(=O)O[C@H](CCc1ccc(OC)c(OC)c1)c1cccc(OCC(=O)NCC(CNC(=O)COc2cccc([C@@H](CCc3ccc(OC)c(OC)c3)OC(=O)[C@@H]3CCCCN3C(=O)[C@@H](CC)c3cc(OC)c(OC)c(OC)c3)c2)CN(C)C)c1)c1cc(OC)c(OC)c(OC)c1` [CID, AP20187] the “effect of CID on the infected region of the CNS” value (CNS of adult rats) was “apoptosis of the infected region of the CNS” and the “cell death of infected cells after CID” value [1] was “induced the cellular death of infected cells”.
